Test results as given in patent publication US20260256752A1, “HIGHLY WATER SOLUBLE SCHIFF BASE PRODRUGS OF BENZALDEHYDE ALLOSTERIC MODULATORS” (ILLEXCOR HOLDINGS, LLC, priority 2022, published 2026).
Entries after “also recorded” stand apart in the source; their conditions may differ.

How the values were obtained:
[1] = Single-dose oral pharmacokinetics in rats; assay type: in vivo, male Sprague Dawley (SD) rats; details: rat whole blood; single oral dose 100 mg/kg
Description: Single-dose pharmacokinetics (PK) in male Sprague Dawley (SD) rats (n=4) were assessed for each compound, and the maximum or peak whole blood concentration and area under the curve are shown in Table 5.
Single doses of each compound were administered as oral suspensions by gavage in 0.5% carboxy methylcellulose at 100 mg/kg. Whole blood levels were collected for at least 72 hours after dose administration. Bioanalyses were performed with liquid chromatography-tandem mass spectrometry […].

[2] = 14-day repeat-dose oral pharmacokinetics in rats; assay type: in vivo, male and female SD rats; details: oral 100 mg/kg for 14 days, Day 14
Description: (§1) Repeat oral doses of each compound were administered by oral gavage for 14 days to male and female SD rats (n=3). […] Steady state exposures for the final dosing interval on Day 14 were similar to total compound exposure from single-dose PK.
(§2) Repeat doses of each compound were administered once daily as oral suspensions by gavage in 0.5% carboxy methylcellulose for 14 days at 100 mg/kg. Whole blood was collected at 7 time-points for up to 24 hours during the final dosing interval on Day 14. Clinical observations, body weights, and food consumption were recorded throughout the 14 day study. Clinical chemistry and hematologic parameters were assessed, and histopathology was performed on organs after 14 days of exposure to study drug.

[3] = ADME / bioavailability assessment
[4] = 14-day repeat-dose safety (clinical observations, histopathology) in rats; assay type: in vivo, male and female SD rats; details: for safety in non-clinical toxicology (in words): above anticipated therapeutic drug levels; for clinical or histopathologic changes after 14 days of exposure: rats, oral 100 mg/kg once daily for 14 days
Description: as §1, §2

Hb = molecular target: T1, Hb (Homo sapiens, UniProt P69905); assay: Occupancy/dose-dependent p50 shift in human non-sickle blood; assay type: biochemical; details: compared to Voxelotor at equivalent drug-Hb occupancy levels
T1 construct: as separate independent studies with non-sickle blood; from tissue; host or cells: non-sickling AA blood (red blood cells)
T1 sequence (P69905 2-142 limits assumed): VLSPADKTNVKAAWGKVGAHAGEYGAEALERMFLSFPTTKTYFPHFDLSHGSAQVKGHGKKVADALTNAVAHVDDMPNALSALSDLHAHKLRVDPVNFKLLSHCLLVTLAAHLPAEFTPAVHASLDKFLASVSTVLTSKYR
T1 sequence (P68871 2-147 partner limits assumed): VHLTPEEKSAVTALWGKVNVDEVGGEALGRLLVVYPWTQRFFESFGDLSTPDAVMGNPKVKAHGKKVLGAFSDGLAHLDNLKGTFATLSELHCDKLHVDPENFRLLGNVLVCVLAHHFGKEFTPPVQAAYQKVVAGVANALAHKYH
Description: Non-sickling human blood was incubated with test compounds at 0.25-2 mM concentrations at 37° C. for 1 hour in 96-well round bottom plates. At conclusion, RBCs were washed once with PBS, followed by lysis with deionized water. Approximately 100 μl aliquots of individual lysates were added to 3 mL of 0.1M potassium phosphate buffer, pH 7.0 in a cuvette and subjected to hemoximetry analysis using a Hemox™ Analyzer (TCS Scientific Corp.) as previously described. (Abdulmalik et al., 2020; Pagare et al., 2020) Change in p50 values (Δp50) was calculated by subtracting the p50 values of treated samples from the value of the control sample and expressing the difference as a percentage of control p50 values.

[5] = system: blood suspensions from humans with homozygous SCD; assay: Oxygen-independent sickle inhibition under anoxia (100% nitrogen) in SS blood suspensions; assay type: cell-based, human
Description: All compounds (Comp 1-13) and comparator molecules (VZHE-039, PP-14, INN-310, and Voxelotor) were evaluated following established procedures (Abdulmalik et al., 2005, 2020; Pagare et al., 2020). Blood samples from individual donors with homozygous SCD (obtained with informed consent) were diluted using Hemox buffer solution with the addition of glucose (10 mM) and BSA (0.2%) to adjust hematocrit of the blood suspensions to 20%, which standardizes the procedure to normalize the ratio of RBCs to drug, for assay consistency and reproducibility. Briefly, blood suspensions were incubated under room air in the presence of various concentrations of test compounds (0-2 mM) at 37° C. for 1 hour in 96-well round bottom plates. Subsequently, the suspensions were incubated with a hypoxic gas mixture (2.5% Oxygen gas/balance Nitrogen gas) at 37° C. for up to 2 hours prior to fixation with 2% glutaraldehyde solution without exposure to air. The fixated blood aliquots were evaluated by microscopic morphological analysis (image analysis on Image J software) to identify the proportion of sickled and non-sickled RBCs, and sickle inhibition calculated based on the % change from negative control (DMSO).
To establish oxygen-independent sickle inhibition, the incubation chamber was subsequently opened and exposed to room air for 15 minutes to ensure complete re-oxygenation and reversal of the sickled cells to normal round cells. Reversal was confirmed by microscopy. The incubation chamber was then closed, and the assay was repeated with incubation in 100% nitrogen gas for 1 hour (for screening), or up to 2.5 h (for time-course studies), with collection and fixation of blood aliquots at defined intervals. Aliquot samples were again subjected to microscopic morphological analysis of bright field images to identify the proportion of sickled and non-sickled cells, and sickle inhibition calculated.

[6] = most patients with SCD; cited from earlier work
[7] = female rats, read-out: Cmax [μM] female
[8] = male rats, read-out: Cmax [μM] male

O=Cc1c(O)cccc1OCc1cccnc1 [Comp 1, 2-hydroxy-6-(pyridin-3-ylmethoxy)benzaldehyde]
AUC0-∞ [μM*h] [1]: 17,415 μM*h
Cmax [1]: 919 µM
AUC0-∞ [μM*h] female ([2]; female rats): 8,085 μM*h
Cmax [2, 7]: 534 µM
AUC0-∞ [μM*h] male ([2]; male rats): 10,490 μM*h
Cmax [2, 8]: 703 µM
absorption, distribution, metabolism and elimination (ADME) properties (in words) [3]: acceptable absorption, distribution, metabolism and elimination (ADME) properties without metabolic lability
safety in non-clinical toxicology (in words) [4]: without hepatotoxicity
clinical or histopathologic changes after 14 days of exposure [4]: No clinical or histopathologic changes
changes in p50 of Hb in human blood (in words) (Hb): relatively weak changes in p50
polymer destabilizing effects / sickle inhibition in anoxia (in words) [5]: most potent polymer destabilizers discovered to date; also recorded: most potent and sustained polymer destabilizing effects observed to date

O=Cc1c(O)cccc1OCc1ccccn1 [Comp 2, 2-hydroxy-6-(pyridin-2-ylmethoxy)benzaldehyde]
AUC0-∞ [μM*h] [1]: 19,822 μM*h
Cmax [1]: 958 µM
AUC0-∞ [μM*h] female ([2]; female rats): 21,547 μM*h
Cmax (ng/ml) female ([2]; female rats): 254,382 ng/ml
Cmax [2, 7]: 1110 µM
AUC0-∞ [μM*h] male ([2]; male rats): 20,363 μM*h
Cmax [2, 8]: 1110 µM
absorption, distribution, metabolism and elimination (ADME) properties (in words) [3]: acceptable absorption, distribution, metabolism and elimination (ADME) properties without metabolic lability
safety in non-clinical toxicology (in words) [4]: without hepatotoxicity
clinical or histopathologic changes after 14 days of exposure [4]: No clinical or histopathologic changes
changes in p50 of Hb in human blood (in words) (Hb): relatively weak changes in p50
polymer destabilizing effects / sickle inhibition in anoxia (in words) [5]: most potent polymer destabilizers discovered to date; also recorded: most potent and sustained polymer destabilizing effects observed to date

O=Cc1c(O)cccc1OCc1cncc(F)c1 [Comp 4, 2-((5-fluoropyridin-3-yl)methoxy)-6-hydroxybenzaldehyde]
AUC0-∞ [μM*h] [1]: 3,360 μM*h
Cmax [1]: 242 µM

O=Cc1c(O)cccc1OCc1ncccc1F [Comp 5, 2-((3-fluoropyridin-2-yl)methoxy)-6-hydroxybenzaldehyde]
AUC0-∞ [μM*h] [1]: 12,047 μM*h
Cmax [1]: 348 µM
AUC0-∞ [μM*h] female ([2]; female rats): 20,566 μM*h
Cmax [2, 7]: 993 µM
AUC0-∞ [μM*h] male ([2]; male rats): 17,073 μM*h
Cmax [2, 8]: 854 µM
absorption, distribution, metabolism and elimination (ADME) properties (in words) [3]: acceptable absorption, distribution, metabolism and elimination (ADME) properties without metabolic lability
safety in non-clinical toxicology (in words) [4]: without hepatotoxicity
clinical or histopathologic changes after 14 days of exposure [4]: No clinical or histopathologic changes
changes in p50 of Hb in human blood (in words) (Hb): relatively weak changes in p50

O=Cc1c(O)cccc1OCc1cccnc1F [Comp 6, 2-((2-fluoropyridin-3-yl)methoxy)-6-hydroxybenzaldehyde]
AUC0-∞ [1]: 728 µM·h
Cmax [1]: 49 µM

O=Cc1c(O)cccc1OCc1ncccc1Cl [Comp 8, 2-((3-chloropyridin-2-yl)methoxy)-6-hydroxybenzaldehyde]
AUC0-∞ [μM*h] [1]: 1,022 μM*h
Cmax [1]: 76 µM

O=Cc1c(F)cc(F)cc1OCc1ccccn1 [Comp 9, 2,4-difluoro-6-(pyridin-2-ylmethoxy)benzaldehyde]
polymer destabilizing effects / sickle inhibition in anoxia (in words) [5]: completely negates the polymer destabilization effects

O=Cc1c(O)cccc1OCc1cncnc1 [Comp 10, 2-hydroxy-6-(pyrimidin-5-ylmethoxy)benzaldehyde]
AUC0-∞ [μM*h] [1]: 3,011 μM*h
Cmax [1]: 157 µM

O=Cc1c(OCc2cccnc2)ccc(F)c1O [Comp 12, 3-fluoro-2-hydroxy-6-(pyridin-3-ylmethoxy)benzaldehyde]
polymer destabilizing effects / sickle inhibition in anoxia (in words) [5]: significantly reduced the potency of polymer inhibition

O=Cc1c(F)cc(F)cc1OCc1ncccc1F [Comp 13, 2,4-difluoro-6-((3-fluoropyridin-2-yl)methoxy)benzaldehyde]
polymer destabilizing effects / sickle inhibition in anoxia (in words) [5]: completely negates the polymer destabilization effects

COc1ccc(OCc2ccccn2)c(C=O)c1 [INN-310, reference compound]
polymer destabilizing effects / sickle inhibition in anoxia (in words) [5]: only weak potency in anoxia

O=Cc1c(O)cccc1OCc1ccccc1 [Reference A, 2-(benzyloxy)-6-hydroxybenzaldehyde, reference compound]
bioavailability (in words) [3]: not bioavailable
polymer destabilizing effects / sickle inhibition in anoxia (in words) [5]: exhibits potent polymer destabilizing effects

O=Cc1c(O)cccc1OCc1cccc(CO)n1 [VZHE-039, reference compound]
AUC0-∞ [μM*h] [1]: 8,782 μM*h
Cmax [1]: 394 µM
AUC0-∞ [μM*h] female ([2]; female rats): 12,188 μM*h
Cmax [2, 7]: 894 µM
AUC0-∞ [μM*h] male ([2]; male rats): 11,585 μM*h
Cmax [2, 8]: 753 µM
clinical or histopathologic changes after 14 days of exposure [4]: Both clinical and histopathologic changes in the liver, including hepatocyte necrosis

CC(C)n1nccc1-c1ncccc1COc1cccc(O)c1C=O [Voxelotor, reference compound]
AUC0-∞ [μM*h] female ([2]; female rats): 7,617 μM*h
Cmax [2, 7]: 548 µM
AUC0-∞ [μM*h] male ([2]; male rats): 6,760 μM*h
Cmax [2, 8]: 422 µM
increase in Hb concentrations [6]: at least 1 g/dl
polymer destabilizing effects / sickle inhibition in anoxia (in words) [5]: did not demonstrate any sickle inhibition
